Assay results published in patent publication US6693174B2, “Gene regulating aureobasidin sensitivity” (Takara Shuzo Co., Ltd., priority 1993, dated 2004).
In brackets after ≈: the same amount, converted by molar mass. *1 amine or outer side, *2 acyl side, *3 side chain or, on linkers, in order; H or OH if unused. Where a SMILES comes first, the peptide text is derived from it. [ ]: non-standard residue; d: D form. X1 = CC[C@@H](C)[C@@H](O[*:1])C(=O)[*:2]; NMeVal(β-OH) = CN[C@H](C(=O)O)C(C)(C)O; NMeF = CN[C@@H](Cc1ccccc1)C(=O)O; aIle = CC[C@@H](C)[C@H](N)C(=O)O; NMeV = CN[C@H](C(=O)O)C(C)C

Legend:
[1] = test system: A. nidulans FGSC89 aureobasidin resistant colonies; experiment: Drug resistance of aureobasidin resistant mutants of A. nidulans; settings: for sensitivities of the resistant cells compared with the parent strain: UV-induced resistant colonies vs FGSC89
C. tropicalis = C. tropicalis TIMM No. 0312; cited from earlier work
C. guilliermondii = C. guilliermondii TIMM No. 0257; cited from earlier work
[2] = in contrast to existing antimycotics with only a fungistatic action; cited from earlier work
[3] = test system: Sake yeast Kyokai K-701 transformants; experiment: Aureobasidin A resistance of sake yeast transformants obtained with pYCscaur1R-C; settings: transformants by pYCscaur1R-C, after subculture over several generations
A. fumigatus = A. fumigatus TIMM No. 0063; cited from earlier work
mouse lymphoma L5178Y = experiment: MIC of aureobasidin, test strain or cell (Table 3); type: cell-based
Blastomyces dermatitidis = Blastomyces dermatitidis TIMM No. 0126; cited from earlier work
[4] = test system: Sake yeast Kyokai K-701 transformants; experiment: Aureobasidin A resistance of sake yeast transformants obtained with StuI-linearized plasmids; settings: transformants by StuI-linearized plasmids, after subculture over several generations
Rhodotorula rubra = Rhodotorula rubra TIMM No. 0923; cited from earlier work
[5] = test system: C. albicans TIMM0136 transformants; experiment: MIC for C. albicans transformants obtained with SalI-linearized pUscaur1R-C; type: cell-based, Candida albicans; settings: C. albicans TIMM0136 transformants by SalI-linearized pUscaur1R-C
Protocol: 14-a) 5 μg of a linear plasmid, which had been prepared by cleaving pUscaur1^R-C with SalI capable of cleaving at one point in the pUC119 region, was transformed into C. albicans TIMM0136 by the lithium acetate method.

C. parapsilosis = C. parapsilosis TIMM No. 0287; cited from earlier work
[6] = test system: Schizo. pombe diploid cells (resistant strains x LH121); experiment: Resistance of diploids formed by crossing resistant strains with normal strain LH121; type: cell-based, Schizosaccharomyces pombe; settings: five diploids, resistant strains crossed with LH121
A. nidulans FGSC89 = experiment: Sensitivity of parent strain to aureobasidin
S. cerevisiae DKD5D = experiment: Sensitivity of parent strain to aureobasidin; type: cell-based, Saccharomyces cerevisiae
Protocol: (§1) Then resistant mutants were separated on an agar plate of a complete nutritional medium YPD (1% of yeast extract, 2% of polypeptone, 2% of glucose) containing 5 μg/ml or 1.5 μg/ml of aureobasidin A. After repeating the mutagenesis several times, 34 mutant clones were obtained.

C. krusei = C. krusei TIMM No. 0270; cited from earlier work
Histoplasma capsulatum = settings: cited from earlier work
Geotrichum candidum = Geotrichum candidum TIMM No. 0694; cited from earlier work
[7] = cited from earlier work
[8] = test system: Schizo. pombe haploid cell strain JY745; experiment: Sensitivity of parent strain to aureobasidin
Fonsecaea pedrosoi = Fonsecaea pedrosoi TIMM No. 0482; cited from earlier work
NRK-49F = experiment: MIC of aureobasidin, test strain or cell (Table 3); type: cell-based
[9] = test system: Paracoccidioides brasiliensis; settings: Paracoccidioides brasiliensis TIMM No. 0880; cited from earlier work
Cr. neoformans = Cr. neoformans TIMM No. 0354; cited from earlier work
[10] = test system: C. albicans var. stellatoidea; settings: C. albicans var. stellatoidea TIMM No. 1308; cited from earlier work
mouse lymphoma EL-4 = experiment: MIC of aureobasidin, test strain or cell (Table 3); type: cell-based
C. glabrata = C. glabrata TIMM No. 1062; cited from earlier work
A. nidulans = A. nidulans TIMM No. 0112; cited from earlier work
[11] = test system: Trichophyton mentagrophytes; settings: Trichophyton mentagrophytes TIMM No. 1189; cited from earlier work
Exophiala werneckii = Exophiala werneckii TIMM No. 1334; cited from earlier work
C. albicans = C. albicans TIMM No. 0136; cited from earlier work
Penicillium commune = Penicillium commune TIMM No. 1331; cited from earlier work
S. cerevisiae = experiment: MIC of aureobasidin, test strain or cell (Table 3); type: cell-based, Saccharomyces cerevisiae
Schizo. pombe = experiment: MIC of aureobasidin, test strain or cell (Table 3); type: cell-based, Schizosaccharomyces pombe
A. clavatus = A. clavatus TIMM No. 0056; cited from earlier work
A. terreus = A. terreus TIMM No. 0120; cited from earlier work
[12] = test system: S. cerevisiae DKD5D resistant mutant clones; experiment: Resistance of aureobasidin resistant mutants of S. cerevisiae; type: cell-based, Saccharomyces cerevisiae; settings: 34 EMS mutant clones of DKD5D
Protocol: as §1

Epidermophyton floccosum = Epidermophyton floccosum TIMM No. 0431; cited from earlier work
C. kefyr = C. kefyr TIMM No. 0298; cited from earlier work
Cladosporium bantianum = Cladosporium bantianum TIMM No. 0343; cited from earlier work
Cr. terreus = Cr. terreus TIMM No. 0424; cited from earlier work
[13] = test system: Sake yeast Kyokai K-701/pAUR1; experiment: Aureobasidin sensitivity of transformant after subculture without aureobasidin A; settings: K-701/pAUR1 vs Sake yeast Kyokai K-701

SMILES: Clc1ccccc1C(c1ccccc1)(c1ccccc1)n1ccnc1 [clotrimazole]
- sensitivities of the resistant cells compared with the parent strain [1]: the same as the parent strain

SMILES: C[C@@H]1[C@H](O)[C@@H](C)/C=C/C=C/C=C/C=C/C=C/C=C/C=C/[C@H](O[C@@H]2O[C@H](C)[C@@H](O)[C@H](N)[C@@H]2O)C[C@@H]2O[C@](O)(C[C@@H](O)C[C@@H](O)[C@H](O)CC[C@@H](O)C[C@@H](O)CC(=O)O[C@H]1C)C[C@H](O)[C@H]2C(=O)O [amphotericin B]
- sensitivities of the resistant cells compared with the parent strain [1]: the same as the parent strain

SMILES: C[C@@H]1C[C@@H]([C@H](O)CC2CC(=O)NC(=O)C2)C(=O)[C@@H](C)C1 [cycloheximide]
- sensitivities of the resistant cells compared with the parent strain [1]: the same as the parent strain

SMILES: CC[C@@H](C)[C@@H]1NC(=O)[C@@H]2CCCN2C(=O)[C@H](Cc2ccccc2)N(C)C(=O)[C@H](Cc2ccccc2)NC(=O)[C@H](C(C)C)N(C)C(=O)[C@@H]([C@H](C)CC)OC(=O)[C@H](C(C)(C)O)N(C)C(=O)[C@H](CC(C)C)NC(=O)[C@H](C(C)C)N(C)C1=O [aureobasidin A] (cyclo(F[NMeF]P[aIle][NMeV]L[NMeVal(β-OH)][X1][NMeV]))
- MIC (C. tropicalis): 0.08 mg/L (≈ 0.0726 µM)
- MIC (C. guilliermondii): 0.08 mg/L (≈ 0.0726 µM)
- action (germicidal versus fungistatic) [2]: germicidal action
- aureobasidin A resistance relative to the parent strain [3]: at least 10 times
- MIC (A. fumigatus): 20 mg/L (≈ 18.2 µM)
- MIC (mouse lymphoma L5178Y): 100 mg/L
- MIC (Blastomyces dermatitidis): 0.31 mg/L (≈ 0.281 µM)
- aureobasidin A resistance relative to the parent strain [4]: at least 10 times
- MIC (Rhodotorula rubra): 0.63 mg/L (≈ 0.572 µM)
- MIC [5]: ≥ 10 mg/L
- MIC (C. parapsilosis): 0.16 mg/L (≈ 0.145 µM)
- resistant to (concentration of aureobasidin A) [6]: 25 µg/mL
- sensitivity to aureobasidin at (A. nidulans FGSC89): 5 µg/mL
- sensitivity to aureobasidin at a concentration of (S. cerevisiae DKD5D): 0.31 µg/mL
- MIC (C. krusei): ≦0.04 μg/ml
- MIC (Histoplasma capsulatum): 0.16 mg/L (≈ 0.145 µM)
- MIC (Geotrichum candidum): 0.63 mg/L (≈ 0.572 µM)
- toxicity in mammal [7]: extremely low toxicity
- sensitivity to aureobasidin at a concentration of [8]: 0.08 µg/mL
- MIC (Fonsecaea pedrosoi): 0.31 mg/L (≈ 0.281 µM)
- MIC (NRK-49F): 12.5 mg/L
- MIC [9]: 0.31 mg/L (≈ 0.281 µM)
- MIC (Cr. neoformans): 0.63 mg/L (≈ 0.572 µM)
- MIC [10]: ≦0.04 μg/ml
- MIC (mouse lymphoma EL-4): 10 mg/L
- MIC (C. glabrata): ≦0.04 μg/ml
- MIC (A. nidulans): 0.16 mg/L (≈ 0.145 µM)
- MIC [11]: 10 mg/L (≈ 9.08 µM)
- MIC (Exophiala werneckii): 1.25 mg/L (≈ 1.13 µM)
- MIC (C. albicans): ≦0.04 μg/ml
- resistance to (concentration of aureobasidin) ([1]; eight UV-induced resistant colonies): 80 µg/mL
- MIC (Penicillium commune): 1.25 mg/L (≈ 1.13 µM)
- MIC (S. cerevisiae): 0.31 mg/L
- MIC (Schizo. pombe): 0.08 mg/L
- MIC (A. clavatus): 0.16 mg/L (≈ 0.145 µM)
- MIC (A. terreus): 5 mg/L (≈ 4.54 µM)
- resistant to (concentration of aureobasidin A) [12]: more than 25 μg/ml
- MIC (Epidermophyton floccosum): 2.5 mg/L (≈ 2.27 µM)
- MIC (C. kefyr): 0.16 mg/L (≈ 0.145 µM)
- MIC (Cladosporium bantianum): 0.63 mg/L (≈ 0.572 µM)
- MIC (Cr. terreus): 0.31 mg/L (≈ 0.281 µM)
- aureobasidin resistance relative to the parent strain [13]: eight times
